# Measured values taken from ChEMBL document CHEMBL1154324, “Activity of mangosteen xanthones and teleocidin a-2 in death receptor expression enhancement and tumor necrosis factor related apoptosis-inducing ligand assays” (J Nat Prod, 2010).
# Target: Tumor necrosis factor receptor superfamily member 10B (Homo sapiens) (UniProt O14763)
# Assay: Induction of DR5 promoter activity in SacI gene expressing human DLD1 cells at 10 to 30 uM after 24 hrs by luciferase reporter gene assay relative to control
# Assay type: cell-based
# Conditions: DLD-1
# Tumor necrosis factor receptor superfamily member 10B (Homo sapiens), sequence (O14763 whole entry): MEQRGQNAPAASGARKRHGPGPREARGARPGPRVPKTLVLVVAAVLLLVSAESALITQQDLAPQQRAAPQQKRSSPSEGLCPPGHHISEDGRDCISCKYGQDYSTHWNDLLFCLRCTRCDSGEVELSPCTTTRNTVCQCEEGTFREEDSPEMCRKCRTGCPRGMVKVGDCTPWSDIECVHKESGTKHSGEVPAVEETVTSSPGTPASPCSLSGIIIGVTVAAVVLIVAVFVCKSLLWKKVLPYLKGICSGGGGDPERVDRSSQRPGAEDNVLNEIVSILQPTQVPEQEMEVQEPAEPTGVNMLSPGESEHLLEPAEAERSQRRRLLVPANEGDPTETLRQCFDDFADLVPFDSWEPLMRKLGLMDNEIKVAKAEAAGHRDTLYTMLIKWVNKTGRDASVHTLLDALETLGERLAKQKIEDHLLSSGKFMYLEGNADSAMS
row,SMILES,fold change (FC)
1,COc1c(O)cc2oc3cc(O)c(CC=C(C)C)c(O)c3c(=O)c2c1CC=C(C)C,3.8
2,CC(C)=CCc1c(O)c(CC=C(C)C)c2oc3c(O)ccc(O)c3c(=O)c2c1O,3.1
3,COc1c(O)cc2oc3cc4c(c(O)c3c(=O)c2c1CC=C(C)C)C=CC(C)(C)O4,4
